Test results as given in publication PMC8198181, “Evaluation of Substituted N-Phenylpiperazine Analogs as D3 vs. D2 Dopamine Receptor Subtype Selective Ligands” (Molecules, 2021).
Values joined by “and” are separate entries in the source; they are usually repeats but may differ in a detail not shown here. Equal entries are not always repeated. “Also recorded” adds a separate entry of the source. Where two headings read alike, the source gives them in different places.

Key:
[1] = target: T1, human 5-HT1A receptor (Homo sapiens, UniProt P08908); assay: 5-HT1A receptor binding ([3H]8-hydroxy-DPAT displacement, CHO-K1 membranes); settings: for 5-HT1A receptor affinity/displacement in words: radioligand displacement assessment at 91 nM; for inhibition at 0.091 µM: single point displacement of [3H]-8-hydroxy-DPAT, 91 nM test compound, CHO-K1, ± S.E.M., n ≥ 3
T1 construct: expressed in transfected cells; host or cells: CHO-K1
T1 sequence (P08908 1-422): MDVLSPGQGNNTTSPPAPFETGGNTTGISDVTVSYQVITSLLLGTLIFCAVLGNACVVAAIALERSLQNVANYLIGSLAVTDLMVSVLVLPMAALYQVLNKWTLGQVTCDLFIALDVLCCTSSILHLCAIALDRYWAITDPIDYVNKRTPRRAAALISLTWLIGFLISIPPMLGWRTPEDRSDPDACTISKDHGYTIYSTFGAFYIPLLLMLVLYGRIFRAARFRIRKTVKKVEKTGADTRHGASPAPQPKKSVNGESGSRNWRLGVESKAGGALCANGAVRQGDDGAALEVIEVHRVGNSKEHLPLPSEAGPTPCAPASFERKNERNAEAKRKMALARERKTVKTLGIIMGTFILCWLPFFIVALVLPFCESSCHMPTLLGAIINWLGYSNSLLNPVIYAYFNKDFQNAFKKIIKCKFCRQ
Protocol: Because the 5-HT1A receptor is a commonly observed off-site binding site for benzamide N-phenylpiperazine ligands, compounds were simultaneously screened for binding of our compounds at the human 5-HT1A receptor expressed in CHO-K1 cells, using the radioligand [^3H]-8-hydroxy-DPAT (8-OH-DPAT) (Table 2). Based upon the analysis of the displacement assay shown in Table 2, the orthosteric compounds 3c–f appeared to bind with low affinity at human 5-HT1A receptors.
10 μg of membranes from CHO-K1 cells expressing the human 5-HT1A receptor were suspended in 50 mM Tris-HCl, 10 mM MgSO4, 0.5 mM EDTA, and 0.1% (w/v) ascorbic acid, pH 7.4 and test ligands (91 nM for single point radioligand displacement assay and 1 nM to 1 μM for full competition assay) were incubated with 0.25 nM [^3H]8-hydroxy-DPAT (PerkinElmer, Boston, MA, USA) for 60 min at room temperature. The nonspecific binding was determined using 10 μM metergoline (Sigma, St. Louis, MO, USA). After incubation, the bound ligands were filtered using an M-24 Brandel filtration system (Brandel, Gaithersburg, MD, USA), collected on glass fiber papers (Whatman grade 934-AH, GE Healthcare Bio-Sciences, Pittsburgh, PA, USA), and the radioactivity was quantitated using a MicroBeta2 Microplate scintillation counter 2450 (PerkinElmer, Boston, MA, USA).

[2] = target: T2, D3 dopamine receptor (Homo sapiens, UniProt P35462); settings: for D2:D3 Selectivity: ratio of D2 and D3 Ki values (Table 1)
Protocol: Competitive radioligand binding techniques were used to determine the Ki values of ligands at human D2 and D3 dopamine receptors expressed in stably transfected HEK cells (Table 1).
The final radioligand concentration was approximately equal to the Kd value for the binding of the radioligand. […] For each competition curve, triplicates were performed using two concentrations of inhibitor per decade over five orders of magnitude.
The competition curves were modeled for a single binding site using Bs = Bo − ((Bo + L)/(IC50 + L)) where Bs is the amount of ligand bound to receptor and Bo is the amount of ligand bound to receptor in the absence of competitive inhibitor. L is the concentration of the competitive inhibitor. […] The values for Bs and Bo were constrained using experimentally derived values. The IC50 values were converted to equilibrium dissociation constants (Ki) [50, 51]. Mean Ki values ± S.E.M. are reported for at least three independent experiments.

[3] = target: T2, D3 dopamine receptor; assay: β-arrestin binding assay (DiscoverX PathHunter, DRD3-U2OS cells); type: cell-based; parameters: host or cells: U2OS (PathHunter eXpress DRD3-U2OS); settings: human D3, test compound at 10x Ki, normalized to quinpirole
Protocol: (§1) Quinpirole was used as a reference prototypic full agonist and haloperidol was used as a reference prototypic antagonist.
The β-arrestin binding assay was performed using a DiscoverX Pathhunter® kit according to the manufacturer’s instructions. PathHunter® eXpress β-Arrestin GPCR cells are engineered to co-express the ProLink™ (PK) tagged GPCR and the Enzyme Acceptor (EA) tagged β-Arrestin. Activation of the GPCR-PK induces β-Arrestin-EA recruitment, forcing complementation of the two β-galactosidase enzyme fragments (EA and PK). The resulting functional enzyme hydrolyzes substrate to generate a chemiluminescent signal. DRD3-U2OS cells were seeded according to kit instructions into white plastic 96-well plates (provided with the kit) 48 h prior to the assay in a volume of 100 μL/well using the Cell Plating Reagent (CPR) provided. Vehicle or test drug, diluted in CPR, was added to the designated wells and incubated for 90 min at 37 °C. Working detection solution (a component provided with the kit) was added to the wells and incubated for 1 h in the dark at room temperature. As discussed for the cyclase assay, an Enspire Alpha 2390 Multilabel Reader/Luminometer was used to detect the luminescent signal with haloperidol and quinpirole used as reference antagonist and full agonist, respectively.
(§2) Figure 3 Comparison of the Efficacy of Phenylthiophene Analogs for Adenylyl Cyclase Inhibition and β-Arrestin Binding at Human D3 Dopamine Receptors. […] Values were normalized to reference full agonist quinpirole (10,000 nM).

[4] = target: T2, D3 dopamine receptor; assay: Forskolin-dependent adenylyl cyclase inhibition assay (cAMP-Glo, HEK cells); type: cell-based; parameters: expressed in transfected cells; host or cells: HEK293; settings: human D3, test compound at 10x Ki, normalized to quinpirole 10,000 nM
Protocol: as §1
The forskolin-dependent adenylyl cyclase inhibition assay was performed using a cAMP-Glo Assay kit (Promega). For this assay cAMP stimulates protein kinase A (PKA) activity, which leads to a decrease in ATP levels and a decrease in the luciferase-coupled production of light. This is a 96 well plate assay using HEK cells stably transfected to express the human D3 dopamine receptor (10,000 cells/well/0.1 mL complete media). After removing media and rinsing with phosphate buffered saline, cells were incubated with 20 μL of forskolin (6000 nM) and test compound or vehicle. […] After cells, test compound (or vehicle) and forskolin (or vehicle) were incubated for 15 min, cells were lysed using 20 μL lysis buffer (provided with the kit) and mixed for 15 min at room temperature. A cAMP Detection Solution (40 μL) was added to each well, gently mixed for 60 s and incubated at room temperature for 20 min. The Kinase-Glo Solution was added (40 μL) to terminate the PKA reaction. The reaction mixture was gently mixed for 60 s and then incubated at room temperature for 10 min. The remaining ATP was detected via a luciferase reaction. The plates were read using an Enspire Alpha 2390 Multilabel Reader/Luminometer. Haloperidol (200 nM) and quinpirole (10,000 nM) was used as a prototypic reference antagonist and full agonist, respectively.
as §2

[5] = target: T2, D3 dopamine receptor; parameters: method as in PMID 15582454; settings: cited from earlier work
[6] = target: human D3 dopamine receptor; settings: read-out: Ki D3 (hD3), previously published; Figure 1 and text; cited from earlier work

T2 sequence (P35462 whole entry): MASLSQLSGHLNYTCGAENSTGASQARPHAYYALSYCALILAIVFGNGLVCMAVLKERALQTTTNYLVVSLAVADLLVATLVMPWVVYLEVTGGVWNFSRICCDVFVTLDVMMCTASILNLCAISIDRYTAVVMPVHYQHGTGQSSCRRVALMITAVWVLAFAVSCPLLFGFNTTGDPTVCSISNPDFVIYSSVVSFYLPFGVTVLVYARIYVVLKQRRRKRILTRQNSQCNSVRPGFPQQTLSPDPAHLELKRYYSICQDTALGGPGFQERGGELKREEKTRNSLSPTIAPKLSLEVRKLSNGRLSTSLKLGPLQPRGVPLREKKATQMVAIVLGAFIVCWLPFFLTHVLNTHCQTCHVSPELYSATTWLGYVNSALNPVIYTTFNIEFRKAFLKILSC

## CCCCN1CCN(c2ccccc2F)CC1 [Compound 3a]
[1]
  Ki: 67.8 ± 4.6 nM
  5-HT1A receptor affinity/displacement in words: partially displace; also recorded: moderate affinity
  inhibition at 0.091 µM: 20.3 ± 16.2%
[2]
  Ki: 96.2 ± 16.9 nM
  D2:D3 Selectivity: 4.0

## CCCCN1CCN(c2cccc(F)c2)CC1 [Compound 3b]
[1]
  5-HT1A receptor affinity/displacement in words: partially displace
  inhibition at 0.091 µM: 36.1 ± 2.1%
[2]
  Ki: 1000 ± 118 nM
  D2:D3 Selectivity: 2.5

## CCCCN1CCN(c2ccc(F)cc2)CC1 [Compound 3c]
[1]
  inhibition at 0.091 µM: 5.1 ± 11.2%
[2]
  Ki: 1180 ± 240 nM
  D2:D3 Selectivity: 2.6

## CCCCN1CCN(c2cc(C#N)ccc2F)CC1 [Compound 3d]
[1]
  inhibition at 0.091 µM: -18 ± 11.1%
[2]
  Ki: 726 ± 101 nM
  D2:D3 Selectivity: 7.5

## CCCCN1CCN(c2ccc(C(F)(F)F)cc2F)CC1 [Compound 3e]
[1]
  inhibition at 0.091 µM: -11.6 ± 15.4%
[2]
  Ki: 1410 ± 59.1 nM
  D2:D3 Selectivity: 5.3

## CCCCN1CCN(c2ccc(F)cc2OCCF)CC1 [Compound 3f]
[1]
  inhibition at 0.091 µM: 1.7 ± 21.7%
[2]
  Ki: 351 ± 42.1 nM
  D2:D3 Selectivity: 1.0

## O=C(NCCCCN1CCN(c2cccc(F)c2)CC1)c1ccc(-c2ccsc2)cc1 [Compound 6b]
[1]
  5-HT1A receptor affinity/displacement in words: substantial affinity
  inhibition at 0.091 µM: 74.7 ± 1.9%
[3]
  efficacy in β-arrestin binding assay: weak partial agonists
[4]
  efficacy in adenylyl cyclase inhibition assay: weak partial agonists
[2]
  Ki: 7.9 ± 1.4 nM
  D2:D3 Selectivity: 296

## O=C(NCCCCN1CCN(c2ccc(F)cc2)CC1)c1ccc(-c2ccsc2)cc1 [Compound 6c]
[1]
  inhibition at 0.091 µM: -7.7 ± 23.5%
[3]
  efficacy in β-arrestin binding assay: very weak partial agonist/antagonist
[4]
  efficacy in adenylyl cyclase inhibition assay: weak partial agonist
[2]
  Ki: 12.4 ± 1.6 nM
  D2:D3 Selectivity: 579

## N#Cc1ccc(F)c(N2CCN(CCCCNC(=O)c3ccc(-c4ccsc4)cc3)CC2)c1 [Compound 6d]
[1]
  inhibition at 0.091 µM: 2.5 ± 3.5%
[3]
  efficacy in β-arrestin binding assay: antagonists
[4]
  efficacy in adenylyl cyclase inhibition assay: antagonists
[2]
  Ki: 15.5 ± 1.3 nM
  D2:D3 Selectivity: 290

## O=C(NCCCCN1CCN(c2ccc(C(F)(F)F)cc2F)CC1)c1ccc(-c2ccsc2)cc1 [Compound 6e]
[1]
  inhibition at 0.091 µM: 6.1 ± 6.8%
[2]
  Ki: 43.3 ± 9.2 nM
  D2:D3 Selectivity: >1800

## O=C(NCCCCN1CCN(c2ccc(F)cc2OCCF)CC1)c1ccc(-c2ccsc2)cc1 [Compound 6f]
[1]
  inhibition at 0.091 µM: 16.9 ± 24.4%
[2]
  Ki: 6.1 ± 0.2 nM
  D2:D3 Selectivity: 67.4

## O=C(NCCCCN1CCN(c2ccccc2F)CC1)c1ccc(-c2cscn2)cc1 [Compound 7a]
[1]; full competition curve, [3H]-8-hydroxy-DPAT, at least three experiments, read-out: Ki at 5-HT1A receptor
  Ki: 14.3 ± 7.1 nM
[1]
  5-HT1A receptor affinity/displacement in words: substantial affinity; also recorded: increased affinity
  inhibition at 0.091 µM: 65.8 ± 5%
[2]
  Ki: 2.5 ± 0.22 nM
  D2:D3 Selectivity: 190

## O=C(NCCCCN1CCN(c2cccc(F)c2)CC1)c1ccc(-c2cscn2)cc1 [Compound 7b]
[1]
  5-HT1A receptor affinity/displacement in words: substantial affinity
  inhibition at 0.091 µM: 74.1 ± 5.3%
[2]
  Ki: 24 ± 5.5 nM
  D2:D3 Selectivity: 165

## O=C(NCCCCN1CCN(c2ccc(F)cc2)CC1)c1ccc(-c2cscn2)cc1 [Compound 7c]
[1]
  inhibition at 0.091 µM: 12.2 ± 3.1%
[2]
  Ki: 28.6 ± 2.1 nM
  D2:D3 Selectivity: 140

## N#Cc1ccc(F)c(N2CCN(CCCCNC(=O)c3ccc(-c4cscn4)cc3)CC2)c1 [Compound 7d]
[1]
  inhibition at 0.091 µM: -5.6 ± 18.3%
[2]
  Ki: 28.1 ± 0.8 nM
  D2:D3 Selectivity: 274

## O=C(NCCCCN1CCN(c2ccc(C(F)(F)F)cc2F)CC1)c1ccc(-c2cscn2)cc1 [Compound 7e]
[1]
  inhibition at 0.091 µM: 7.6 ± 6.5%
[3]
  efficacy in β-arrestin binding assay: antagonists
[4]
  efficacy in adenylyl cyclase inhibition assay: antagonists
[2]
  Ki: 30.9 ± 2.6 nM

## O=C(NCCCCN1CCN(c2ccc(F)cc2OCCF)CC1)c1ccc(-c2cscn2)cc1 [Compound 7f]
[1]
  5-HT1A receptor affinity/displacement in words: substantial affinity
  inhibition at 0.091 µM: 37.1 ± 24.4%
[2]
  Ki: 4.8 ± 0.28 nM
  D2:D3 Selectivity: 72.9

## O=C(NCCCCN1CCN(c2ccccc2OCCF)CC1)c1ccc(-c2ccsc2)cc1 [LS-3-134]
[5]
  % of maximum efficacy, adenylyl cyclase inhibition assay: 35% and 34.4 ± 1.7%

## O=C(NCCCCN1CCN(c2cccc(Cl)c2Cl)CC1)c1ccc2c(c1)Cc1ccccc1-2 [NGB 2904]
[6]
  Ki: 2 nM

## O=C(NCCCCN1CCN(c2cccc(Cl)c2Cl)CC1)c1ccc(-c2ccccn2)cc1 [PG 01037]
[6]
  Ki: 0.7 nM
